Measurements published in the supplement of paper PMC10307832.

Assays:
Experiment in all cases: relative viability (nuclei count vs DMSO), 5 days (fraction); higher = more cells survive
Obatoclax + Foretinib = compound: COC1=CC(c2cc3ccccc3[nH]2)=N/C1=C\c1[nH]c(C)cc1C [Obatoclax] + COc1cc2c(Oc3ccc(NC(=O)C4(C(=O)Nc5ccc(F)cc5)CC4)cc3F)ccnc2cc1OCCCN1CCOCC1 [Foretinib] (partner 0.25 µM)
Summary of the method: (§1)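 A single step with final 0.05% Triton X-100, 1% formaldehyde and 1 ug/ml Hoechst fixed the cells and stained nuclei 5 days after treatment. Lung cancer cell lines in 1536-well plates had been treated by pin tool the day after seeding with one drug alone or a fixed anchor-drug dose plus five library-drug doses (not always all listed) in √10 steps, and nuclei were counted on 4× images. Relative viability is the ratio of nuclei in treated wells to nuclei in vehicle wells, taken as the median of duplicate plates.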

[1] = compound: CC1=CC(=NN1)NC2=CC(=NC(=N2)/C=C/C3=CC=CC=C3)N4CCN(CC4)C + Cc1nc(Nc2ncc(C(=O)Nc3c(C)cccc3Cl)s2)cc(N2CCN(CCO)CC2)n1 [Dasatinib] (partner 0.075 µM)
Summary of the method: as §1

Bortezomib + Navitoclax = compound: CC(C)C[C@H](NC(=O)[C@H](Cc1ccccc1)NC(=O)c1cnccn1)B(O)O [Bortezomib] + CC1(C)CCC(c2ccc(Cl)cc2)=C(CN2CCN(c3ccc(C(=O)NS(=O)(=O)c4ccc(N[C@H](CCN5CCOCC5)CSc5ccccc5)c(S(=O)(=O)C(F)(F)F)c4)cc3)CC2)C1 [Navitoclax] (partner 0.5 µM)
Summary of the method: as §1

Bortezomib + Decitabine = compound: CC(C)C[C@H](NC(=O)[C@H](Cc1ccccc1)NC(=O)c1cnccn1)B(O)O [Bortezomib] + Nc1ncn([C@H]2C[C@H](O)[C@@H](CO)O2)c(=O)n1 [Decitabine] (partner 2 µM)
Summary of the method: as §1

Cell Line | relative viability (Obatoclax + Foretinib; first compound 0.01 µM) | relative viability (Obatoclax + Foretinib; first compound 0.03162 µM) | relative viability (Obatoclax + Foretinib; first compound 0.1 µM) | relative viability (Obatoclax + Foretinib; first compound 0.3162 µM) | relative viability (Obatoclax + Foretinib; first compound 1 µM) | relative viability ([1]; first compound 0.08 µM) | relative viability ([1]; first compound 0.253 µM) | relative viability ([1]; first compound 0.8 µM) | relative viability ([1]; first compound 2.53 µM) | relative viability ([1]; first compound 8 µM) | relative viability (Bortezomib + Navitoclax; first compound 0.002 µM) | relative viability (Bortezomib + Navitoclax; first compound 0.006325 µM) | relative viability (Bortezomib + Navitoclax; first compound 0.02 µM) | relative viability (Bortezomib + Decitabine; first compound 0.0002 µM) | relative viability (Bortezomib + Decitabine; first compound 0.000632 µM) | relative viability (Bortezomib + Decitabine; first compound 0.002 µM) | relative viability (Bortezomib + Decitabine; first compound 0.006325 µM) | relative viability (Bortezomib + Decitabine; first compound 0.02 µM) | relative viability (Bortezomib + Navitoclax; first compound 0.0002 µM) | relative viability (Bortezomib + Navitoclax; first compound 0.000632 µM)
ChaGo-K-1 | 0.83 | 0.947 | 0.913 | 0.901 | 1.03 | 0.58 | 0.598 | 0.476 | 0.151 | 0.132 | 0.964 | 0.307 | 0.2 | 0.49 | 0.444 | 0.561 | 0.444 | 0.161 | – | –
UMC-11 | 1.07 | 1.08 | 1.05 | 0.716 | 0.382 | 0.487 | 0.426 | 0.329 | 0.163 | 0.125 | 0.315 | 0.12 | 0.101 | 0.628 | 0.713 | 0.483 | 0.326 | 0.203 | 0.288 | 0.281
HCC-827 | 1.01 | 1.04 | 1.08 | 0.964 | 1.05 | 0.318 | 0.255 | 0.282 | 0.228 | 0.373 | 0.768 | 0.979 | 0.0957 | 0.35 | 0.376 | 0.346 | 0.327 | 0.296 | 1.05 | 1.03
NCI-H1993 | 0.766 | 0.757 | 0.807 | 0.771 | 0.876 | 0.613 | 0.527 | 0.565 | 0.44 | 0.37 | 1.01 | 0.52 | 0.48 | 0.634 | 0.717 | 0.622 | 0.319 | 0.374 | 0.94 | 0.982
NCI-H647 | 1.14 | 1.04 | 1.12 | 0.935 | 0.476 | 0.185 | 0.186 | 0.2 | 0.0436 | 0.0226 | 0.619 | 0.0302 | 0.0207 | 0.483 | 0.404 | 0.38 | 0.0562 | 0.0417 | 0.997 | 1.1
NCI-H460 | 0.993 | 1.01 | 0.947 | 0.456 | 0.157 | 0.545 | 0.546 | 0.487 | 0.144 | 0.0157 | 1.34 | 0.0699 | 0.0164 | 0.479 | 0.471 | 0.56 | 0.296 | 0.0215 | 1.08 | 1.15
EMC-BAC-2 | 0.987 | 1.03 | 1.08 | 0.864 | 0.788 | 0.308 | 0.268 | 0.298 | 0.202 | 0.0961 | 1.28 | 0.595 | 0.171 | 1.07 | 0.987 | 0.828 | 0.559 | 0.196 | 1.13 | 1.2
NCI-H23 | 1.04 | 1 | 0.986 | 0.826 | 1.01 | 0.769 | 0.764 | 0.815 | 0.683 | 0.137 | 0.834 | 0.212 | 0.126 | 0.288 | – | 0.312 | 0.162 | 0.163 | – | 0.495
A-427 | 1.16 | 0.989 | 1.01 | 0.972 | 0.984 | 0.789 | 0.579 | 0.631 | 0.156 | 0.0981 | 0.963 | 0.988 | 0.112 | 0.531 | 0.536 | 0.579 | 0.247 | 0.18 | 0.91 | 1.01
NCI-H322M | 0.997 | 1.02 | – | 0.853 | 0.696 | 0.268 | 0.254 | 0.228 | 0.206 | 0.209 | 1.18 | 1.24 | 1.09 | 0.783 | 0.671 | 0.705 | 0.6 | 0.45 | 1.34 | –
COR-L23 | 0.878 | 1.05 | 0.927 | 0.51 | 0.323 | 0.423 | 0.445 | 0.493 | 0.143 | 0.0623 | 0.528 | 0.0681 | 0.0713 | 0.439 | 0.417 | 0.396 | 0.0939 | 0.0825 | 0.933 | 1.02
SK-MES-1 | 0.935 | 1.03 | 0.831 | 0.833 | 0.867 | 0.479 | 0.322 | 0.493 | 0.139 | 0.0976 | 1.22 | 0.198 | 0.146 | 0.444 | 0.411 | 0.379 | 0.194 | 0.156 | 1.24 | 1.28
NCI-H2085 | 0.761 | 0.998 | 1.14 | 0.795 | 0.531 | 0.245 | 0.232 | 0.276 | 0.255 | 0.2 | 1.05 | 0.248 | 0.211 | 0.588 | 0.544 | 0.593 | 0.298 | 0.246 | 1.18 | 1.14
NCI-H2087 | 1.21 | 1.05 | 1.1 | 0.324 | 0.465 | 0.934 | 0.601 | 0.627 | 0.182 | 0.0767 | 0.509 | 0.0888 | 0.0686 | 0.233 | 0.265 | 0.141 | 0.0621 | 0.0401 | 0.991 | 1.02
HCC-366 | 0.932 | 0.922 | 0.916 | 0.549 | 0.919 | 0.708 | 0.645 | 0.544 | 0.0369 | 0.0193 | 1.04 | 0.949 | 0.0281 | 0.305 | 0.327 | 0.39 | 0.201 | 0.0383 | 0.945 | 1.03
NCI-H2126 | 1.11 | 1.1 | 1.12 | 1.16 | 1.13 | 0.64 | 0.696 | 0.662 | 0.476 | 0.189 | 0.827 | 0.848 | 0.327 | 0.603 | 0.597 | 0.535 | 0.552 | 0.197 | 0.857 | 0.844
